Reference: the supplement of paper PMC13380429

How the values were obtained:
Settings in all cases: 72 h
[1] = tested on: Caco-2; test: cell viability relative to DMSO; higher = less toxic
[2] = tested on: Calu-3; test: as above
[3] = tested on: HepG2; test: as above
[4] = tested on: U2OS; test: as above
[5] = tested on: Vero E6; test: as above
[6] = tested on: Caco-2; test: relative viability EC50 (midpoint between 100% and the lowest measured viability); higher = less toxic
[7] = tested on: Calu-3; test: as above
[8] = tested on: U2OS; test: as above
[9] = tested on: Vero E6; test: as above
[10] = tested on: Caco-2; test: drug sensitivity score (DSS) for viability; higher = more toxic; extreme values may be limits of the assay
[11] = tested on: Calu-3; test: as above
[12] = tested on: HepG2; test: as above
[13] = tested on: U2OS; test: as above
[14] = tested on: Vero E6; test: as above
[15] = tested on: HepG2; test: relative viability EC50 (midpoint between 100% and the lowest measured viability); higher = less toxic

Row | Compound | cell viability ([1]; 1 nM) [%] | cell viability ([1]; 10 nM) [%] | cell viability ([1]; 100 nM) [%] | cell viability ([1]; 1000 nM) [%] | cell viability ([1]; 10000 nM) [%] | cell viability ([2]; 1 nM) [%] | cell viability ([2]; 10 nM) [%] | cell viability ([2]; 100 nM) [%] | cell viability ([2]; 1000 nM) [%] | cell viability ([2]; 10000 nM) [%] | cell viability ([3]; 1 nM) [%] | cell viability ([3]; 10 nM) [%] | cell viability ([3]; 100 nM) [%] | cell viability ([3]; 1000 nM) [%] | cell viability ([3]; 10000 nM) [%] | cell viability ([4]; 1 nM) [%] | cell viability ([4]; 10 nM) [%] | cell viability ([4]; 100 nM) [%] | cell viability ([4]; 1000 nM) [%] | cell viability ([4]; 10000 nM) [%] | cell viability ([5]; 1 nM) [%] | cell viability ([5]; 10 nM) [%] | cell viability ([5]; 100 nM) [%] | cell viability ([5]; 1000 nM) [%] | cell viability ([5]; 10000 nM) [%] | relative viability EC50 [6] [µM] | relative viability EC50 [7] [µM] | relative viability EC50 [8] [µM] | relative viability EC50 [9] [µM] | drug sensitivity score [10] | drug sensitivity score [11] | drug sensitivity score [12] | drug sensitivity score [13] | drug sensitivity score [14] | relative viability EC50 [15] [µM]
1 | CC(C)N(CCC(=O)c1ccc2ccccc2c1)Cc1ccccc1 | 90.3 | 94.8 | 94.4 | 97.7 | 99.5 | 97.6 | 102 | 102 | 97.5 | 92.1 | 98.4 | 91.6 | 99 | 101 | 66.6 | 99.2 | 98.2 | 93.5 | 96.7 | 95 | 96.2 | 98.7 | 99 | 96.3 | 87 | > 10 | > 10 | > 10 | > 10 | 0 | 0 | 1.4 | 0 | 0.3 | –
2 | CCc1c(-c2ccccc2)c(-c2ccccc2)nn1-c1ccccc1-c1cccc(OCC(=O)O)c1 | 102 | 105 | 97.8 | 113 | 91.5 | 93.4 | 94.7 | 101 | 94 | 86.3 | – | – | – | – | – | 99.7 | 101 | 98 | 105 | 97.4 | 102 | 103 | 103 | 101 | 97.9 | > 10 | > 10 | > 10 | > 10 | 0 | 0.5 | – | 0 | 0 | –
3 | CNC(=O)c1cccc(NC(=O)N2CCC(Oc3ccccc3Cl)CC2)c1 | 94.3 | 100 | 93.2 | 102 | 82.7 | 80.3 | 99.6 | 86.4 | 99.4 | 101 | 99.1 | 101 | 92.4 | 79.3 | 50.5 | 94.9 | 103 | 97.3 | 99.6 | 91.4 | 102 | 99.5 | 97 | 89.9 | 91 | > 10 | > 10 | > 10 | > 10 | 0.3 | 0 | 4.8 | 0 | 0 | –
4 | CNc1nc(-c2ccc3c(N)n[nH]c3c2)cc(N2C[C@@H](C(=O)NC3CCCCC3)CC[C@H]2C)n1 | 106 | 106 | 102 | 79 | 58 | 93.5 | 93.3 | 87.5 | 77.3 | 48.1 | 103 | 108 | 101 | 72.4 | 53.9 | 93.7 | 101 | 95.9 | 91 | 62.3 | 97.1 | 94.9 | 98.6 | 91 | 71.9 | – | 0.737 | – | – | 4.8 | 5.9 | 5.7 | 3.2 | 2.3 | –
5 | COc1ccc(-c2oc3cc(OC)ccc3c2C(=O)c2ccc(C#N)cc2)cc1 | 99.7 | 96.4 | 95.3 | 93.6 | 87.2 | 96.4 | 98.8 | 101 | 106 | 102 | 107 | 96.8 | 109 | 92.8 | 74.4 | 98.2 | 103 | 95.2 | 101 | 95.4 | 104 | 101 | 101 | 96.4 | 99 | > 10 | > 10 | > 10 | > 10 | 0 | 0 | 2 | 0 | 0 | –
6 | COc1ccc(Cn2ccc3ccc(C(=O)NO)cc32)cc1 | 98 | 97 | 100 | 101 | 70.1 | 103 | 95.2 | 96.8 | 100 | 86.7 | 105 | 102 | 97.7 | 94.2 | 56.4 | 97.9 | 98.2 | 97.5 | 97 | 72.4 | 96.7 | 100 | 104 | 94.8 | 51.5 | – | > 10 | – | – | 1.2 | 0.1 | 3.2 | 1.6 | 3.4 | –
7 | COc1ccc2[nH]cc(C3=CCNCC3)c2c1 | 90.7 | 107 | 99.6 | 106 | 98.4 | 92.3 | 90 | 95.1 | 96.1 | 101 | – | – | – | – | – | 95.7 | 103 | 96 | 102 | 98.8 | 101 | 98.7 | 104 | 105 | 100 | > 10 | > 10 | > 10 | > 10 | 0 | 0 | – | 0 | 0 | –
8 | COc1ccc2nc3[nH]nc(C)c3c(NCCOCCO)c2c1 | 103 | 102 | 89.6 | 100 | 96.8 | 106 | 107 | 88.8 | 94.7 | 70 | 104 | 97.2 | 102 | 87.6 | 75 | 102 | 102 | 95.9 | 105 | 104 | 106 | 98 | 102 | 99.4 | 91.9 | > 10 | – | > 10 | > 10 | 0 | 2.1 | 2.4 | 0 | 0 | > 10
9 | C[C@]12CC[C@@H](O)C[C@@H]1CC[C@@H]1[C@@H]2CC[C@]2(C)C(c3ccccc3)=CC[C@@H]12 [17-PA] | 95 | 87.9 | 87.5 | 104 | 82.6 | 101 | 106 | 94.2 | 94.7 | 99.8 | – | – | – | – | – | 96.1 | 101 | 96.4 | 103 | 102 | 98.1 | 89.2 | 99.6 | 93 | 107 | > 10 | > 10 | > 10 | > 10 | 0.3 | 0 | – | 0 | 0 | –
10 | CN(c1ccc(NC(=O)Nc2ccccc2)cc1)S(=O)(=O)c1cnn(-c2ccc(F)cc2)c1 [BTT-3033] | 101 | 115 | 96.3 | 109 | 100 | 96.7 | 104 | 97.6 | 97.5 | 106 | – | – | – | – | – | 104 | 104 | 101 | 111 | 99.8 | – | – | – | – | – | > 10 | > 10 | > 10 | – | 0 | 0 | – | 0 | – | –
11 | C[C@@H](N[C@H]1CCCC[C@@H]1NC(=O)c1ccc(Cl)cc1)c1cccc2ccccc12 [Calhex-231] | 104 | 91.7 | 91.6 | 102 | 92.9 | 91.9 | 108 | 95.9 | 109 | 85.8 | 97.9 | 101 | 95.7 | 97.9 | 68.6 | 98.7 | 96.2 | 99.8 | 94.1 | 87.3 | 103 | 104 | 102 | 98.9 | 93.4 | > 10 | > 10 | > 10 | > 10 | 0 | 0.1 | 1.7 | 0.3 | 0 | –
12 | COc1ccc(S(=O)(=O)N(C(C)=O)c2ccccc2/C=C/c2cc[n+]([O-])cc2)cc1 [HMN-214] | 105 | 89.6 | 94.2 | 60.3 | 48.4 | 101 | 95 | 105 | 71.5 | 60.4 | 98.4 | 105 | 98.1 | 40.3 | 38 | 97.5 | 95.8 | 96.9 | 51.9 | 29.3 | 94.6 | 97.9 | 99.8 | 41.8 | 41 | 0.41 | – | 0.634 | 0.324 | 8 | 5.3 | 11.3 | 9.8 | 10.7 | 0.323
13 | Cc1ccc(-c2csc(NC(=O)c3ccccc3)n2)c(C)c1 [INH1] | 97.2 | 104 | 96.1 | 91.5 | 85.8 | 96.9 | 102 | 101 | 107 | 98.3 | 102 | 104 | 98.8 | 104 | 58.7 | 94.7 | 101 | 95.3 | 96.3 | 96.6 | 102 | 96.8 | 98.4 | 97.5 | 91.1 | > 10 | > 10 | > 10 | > 10 | 0.4 | 0 | 1.8 | 0 | 0 | –
14 | CC(=O)NC1=NN(C(C)=O)[C@](C)(c2ccccc2)S1 [K-858] | 106 | 102 | 91.3 | 102 | 71 | 108 | 93 | 96.3 | 101 | 91.5 | 98.8 | 101 | 98.7 | 106 | 39.2 | 97 | 96.5 | 97.6 | 98.3 | 63.9 | 103 | 103 | 99 | 96.2 | 42.2 | – | > 10 | – | 2.63 | 1.1 | 0 | 2.9 | 2 | 3.7 | 3.65
15 | Cc1ccccc1CN1C2=NCCN2C(=O)C2=C1CCN(Cc1ccccc1)C2 [TIC10] | 110 | 106 | 104 | 93.7 | 103 | 98.9 | 99.7 | 98 | 102 | 92.4 | – | – | – | – | – | – | – | – | – | – | 107 | 106 | 98.8 | 99.5 | 103 | > 10 | > 10 | – | > 10 | 0 | 0 | – | – | 0 | –
16 | CC(=O)O[C@H]1CC[C@@]2(C)C(=CC[C@@H]3[C@@H]2CC[C@]2(C)C(c4cccnc4)=CC[C@@H]32)C1 [abiraterone-acetate] | 97.1 | 99.8 | 95.5 | 92.8 | 92.6 | 98.3 | 102 | 96.6 | 87.8 | 107 | – | – | – | – | – | 101 | 100 | 99.5 | 95.8 | 102 | – | – | – | – | – | > 10 | > 10 | > 10 | – | 0 | 0 | – | 0 | – | –
